Laboratory results published in PubChem BioAssay AID977613 (Broad Institute, 2014).
Activity calls are given as the source filed them. No rule for the calls is given here.

Test system: Broad 7084-01 inhibitor HTS, set 2
Experiment: inhibitors in Broad screen 7084-01, set 2 (AID 977613);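 also: host cells are infected with parasite promastigotes that become internalized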

Row | SMILES | active concentration
1 | O=C(CC1CC1)N1[C@H](CO)[C@@H](c2ccccc2)C12CN(Cc1cccnc1)C2 | > 10 µM (inactive)
2 | Cc1nn(C)cc1NC(=O)C[C@@H]1CC[C@H]2[C@H](COc3ccc(NC(=O)C4CCOCC4)cc3C(=O)N2C)O1 | > 10 µM (inactive)
3 | COCC#Cc1ccc([C@@H]2[C@H](CO)N3C(=O)CN(C(=O)Nc4ccccc4F)C[C@@H]23)cc1 | > 10 µM (inactive)
4 | COCC(=O)N1CC2(C1)[C@H](c1ccc(-c3ccc(C)cc3)cc1)[C@@H](CO)N2C(C)=O | > 10 µM (inactive)
5 | O=C(c1ccncc1)N1C[C@@H]2[C@H](c3ccccc31)[C@H](CO)N2Cc1ccccc1F | > 10 µM (inactive)
6 | COc1cccc(NC(=O)Nc2ccc3c(c2)C(=O)N(C)[C@H]2CC[C@@H](CC(=O)NCCc4ccccc4)O[C@H]2CO3)c1 | > 10 µM (inactive)
7 | C/C=C/c1ccc([C@H]2[C@@H](CO)N3C(=O)CN(C(=O)c4ccncc4)C[C@@H]23)cc1 | > 10 µM (inactive)
8 | O=C(CC1CC1)N1CC(=O)N2[C@H](C1)[C@@H](c1ccc(/C=C/c3ccccc3)cc1)[C@@H]2CO | > 10 µM (inactive)
9 | O=S(=O)(Cc1ccccc1)N1[C@H](CO)[C@@H](c2ccccc2)C12CN(CCC(F)(F)F)C2 | > 10 µM (inactive)
10 | CN1c2ccc(-c3cccc(F)c3)cc2[C@@H]2[C@@H](CCN2C(=O)c2ccccc2F)[C@H]1CO | > 10 µM (inactive)
11 | CCCNC(=O)N1[C@H](CO)[C@H](c2ccccc2-c2cccc(OC)c2)[C@@H]1C#N | > 10 µM (inactive)
12 | CN1C(=O)c2cc(NS(C)(=O)=O)ccc2OC[C@H]2O[C@H](CC(=O)N3CCOCC3)CC[C@H]21 | > 10 µM (inactive)
13 | O=C(CC1CC1)N1CC(=O)N2[C@@H](CO)[C@H](c3ccc(C#Cc4cccc(F)c4)cc3)[C@@H]2C1 | > 10 µM (inactive)
14 | CCc1csc(N2[C@H](C#N)[C@H](c3ccccc3-c3ccc(F)cc3)[C@H]2CO)n1 | > 10 µM (inactive)
15 | N#C[C@H]1[C@H](c2ccccc2-c2ccccc2F)[C@H](CO)N1C(=O)Cc1ccccc1 | > 10 µM (inactive)
16 | Cc1cccc(S(=O)(=O)N2CC[C@H]3[C@@H](CO)N(C)c4ccc(-c5ccccc5F)cc4[C@H]32)c1 | > 10 µM (inactive)
17 | O=C(C[C@H]1CC[C@H]2[C@@H](COC[C@H](O)CN2CC2CCOCC2)O1)NCC1CCCCC1 | > 10 µM (inactive)
18 | O=C(NCCc1ccncc1)[C@H]1[C@H](CO)[C@H]2Cn3c(ccc(-c4ccccc4)c3=O)[C@H]2N1C(=O)C1CC1 | > 10 µM (inactive)
19 | N#C[C@H]1[C@@H](c2ccccc2C2=CCCCC2)[C@H](CO)N1C(=O)c1cccc(F)c1 | > 10 µM (inactive)

Row | SMILES | active concentration
20 | CN1c2ccc(C#Cc3cccnc3)cc2[C@H]2[C@H](CCN2C(=O)C2CCCCC2)[C@H]1CO | > 10 µM (inactive)
21 | C[C@@H](NC(=O)[C@@H]1[C@@H](CO)[C@@H]2Cn3c(cccc3=O)[C@H]1N2CCC(F)(F)F)c1ccccc1 | > 10 µM (inactive)
22 | CC=Cc1ccc2n(c1=O)C[C@H]1[C@H](CO)[C@@H](C(=O)NCCC)N(Cc3cocn3)[C@@H]21 (mixture of isomers) | > 10 µM (inactive)
23 | O=C(NCC(F)(F)F)[C@H]1[C@H](CO)[C@H]2Cn3c(cccc3=O)[C@H]2N1Cc1cccc(F)c1 | > 10 µM (inactive)
24 | O=C(c1cccnc1)N1C[C@H]2[C@@H](c3ccccc31)[C@H](CO)N2Cc1ccc2c(c1)OCO2 | > 10 µM (inactive)
25 | O=C(C[C@@H]1CC[C@H]2[C@@H](COC[C@@H](O)CN2C(=O)Nc2ccc(Cl)c(Cl)c2)O1)NCc1ccc(Cl)cc1 | > 10 µM (inactive)
26 | O=C(C[C@@H]1CC[C@@H]2[C@H](COC[C@H](O)CN2Cc2cc(F)cc(F)c2)O1)NC1CCC1 | > 10 µM (inactive)
27 | O=C(C[C@@H]1CC[C@@H]2[C@H](COC[C@@H](O)CN2Cc2ccccc2)O1)NCCc1ccccc1 | > 10 µM (inactive)
28 | CN(C)CC(=O)N1CCCCN2[C@H](CO)[C@H](c3ccc(/C=C/c4ccccc4)cc3)[C@H]2C1 | < 10 µM
29 | Cn1cnc(S(=O)(=O)N2C[C@@H](O)COC[C@H]3O[C@@H](CC(=O)NC4CCCC4)CC[C@@H]32)c1 | > 10 µM (inactive)
30 | COc1ccc(NC(=O)N2CCCCN3[C@H](CO)[C@@H](c4ccc(-c5ccccc5F)cc4)[C@@H]3C2)cc1 | > 10 µM (inactive)
31 | CC(C)CC#Cc1ccc([C@H]2[C@H](CO)N3C(=O)CN(C(=O)c4ccccn4)C[C@@H]23)cc1 | > 10 µM (inactive)
32 | CCCNC(=O)N1CC2(C1)CN(Cc1ccc(F)cc1)[C@H](CO)c1[nH]c3cc(OC)ccc3c12 | > 10 µM (inactive)
33 | COc1ccccc1CN1[C@@H]2CN(C(=O)C3CCCCC3)c3ccccc3[C@@H]2[C@@H]1CO | > 10 µM (inactive)
34 | O=C(c1ccc2c(c1)OCO2)N1C[C@H]2[C@@H](c3ccccc31)[C@@H](CO)N2C(=O)CC1CC1 | > 10 µM (inactive)
35 | O=C(C1CCOCC1)N1C[C@H]2[C@@H](c3ccccc31)[C@@H](CO)N2C(=O)Cc1ccccc1 | > 10 µM (inactive)
36 | O=C(C[C@H]1CC[C@@H]2[C@H](COC[C@@H](O)CN2S(=O)(=O)c2ccccc2)O1)Nc1ccccc1 | > 10 µM (inactive)
37 | C/C=C/c1ccc([C@H]2[C@@H](CO)N(C(C)=O)C23CN(C(=O)c2ccc(F)cc2)C3)cc1 | > 10 µM (inactive)
